Where “and” joins values, the source holds several entries; their conditions need not be identical. Identical values can stand only once.
Tests used:
[1] = system: phosphorylation of RIPK1, RIPK3, and MLKL in HT-29 cells; test: Western blot of necroptotic signaling after T/S/Z; assay type: cell-based, human; details: T/S/Z 8 h
Source text: (§1) In addition to TNF-induced necroptosis, it is known that TLR3 or TLR4 activation can also trigger necroptosis. We further evaluated the effects of PK6 and PK68 on TLR3- and TLR4-mediated necroptosis induced by poly(I:C)/z-VAD and LPS/z-VAD, respectively. […] To investigate the molecular mechanism of PK series-mediated necroptosis inhibition, we examined the effects of these compounds on the major steps of necroptotic signaling, including activation of RIPK1, RIPK3, and MLKL. […] It has been shown previously that RIPK3 activation leads to the formation of RIPK3 puncta during necroptosis.
(§2) Fig. 3 PK6 and PK68 block cellular activation of RIPK1, RIPK3, and MLKL upon necroptotic stimuli. a, b Bone marrow-derived macrophages from C57BL/6 mice or rat were pretreated with DMSO, PK6(10 μM), or PK68 (100 nM) for 1 h and subsequently treated with indicated stimuli for 24–30 h. Cell viability was determined by measuring ATP levels. L, LPS (20 ng/ml); P, poly(I:C) (50 μg/ml); S (100 nM); Z (10 μM). Data are represented as the mean ± standard deviation of triplicates. c HT-29 cells were treated with the indicated compound for 1 h prior to the treatment of T (40 ng/ml), S (100 nM), and Z (20 μM) for additional 8 h. […] The distribution of RIPK3 was detected by immunofluorescence. *P < 0.05. **P < 0.01. ***P < 0.001 […]

[2] = system: HT-29 cells stably expressing Flag-tagged RIPK3; test: RIPK3 puncta formation, immunofluorescence; assay type: cell-based, human; details: T 100 ng/ml, S, Z 12 h
Source text: as §1, §2

human RIPK1 = biological target: T1, human RIPK1 (Homo sapiens, UniProt Q13546); test: In vitro kinase activity assay (ADP-Glo); assay type: biochemical; details: recombinant RIPK1; ATP 50 μM
T1 construct: purchased SignalChem
Description: Having shown that PK6 and PK68 can inhibit activation of both RIPK1 and RIPK3 during TNF-mediated necroptosis, we sought to determine if PK6 and PK68 can directly target RIPK1 or and RIPK3 by performing in vitro kinase assays. Both PK6 and PK68 were able to block the kinase activities of both human RIPK1 and mouse RIPK1 in vitro (Fig. 4a and Supplementary Fig. 19).
(§3) Recombinant proteins were incubated with PK6 and PK68 as indicated. […] NIH3T3-RIPK3 cells were pretreated with indicated compounds for 1 h and subsequently treated with T (40 ng/ml)/S (100 nM)/Z (20 μM) or AP20187 (100 nM) for 24 h. Cell viability was determined by measuring ATP levels. e PK6 and PK68 have no effect on MLKL dimerization-induced cell death in HeLa-MLKL (1–190) cells that stably express MLKL (1–190aa) fused to DmrB. HeLa-MLKL (1–190) cells were pretreated with indicated compounds for 1 h and subsequently treated with AP20187 (100 nM) for 24 h. Cell viability was determined by measuring ATP levels.
The recombinant RIPK1 or RIPK3 protein was incubated with DMSO or the indicated compound for 15 min in the assay buffer (25 mM HEPES pH 7.2, 20 mM MgCl2, 12.5 mM MnCl2, 12.5 mM β-glycerol phosphate, 5 mM EGTA, 2 mM EDTA, and 2 mM DTT). […] The luminescence was measured to calculate the kinase activity after the addition of the ADP-Glo Kinase Assay kit following the manufacturer’s instructions (Promega).

NIH3T3-RIPK3 cells = test: TNF-induced necroptosis (T/S/Z); assay type: cell-based, mouse; details: T/S/Z 24 h
Description: as §3
(§4) The cell viability was analyzed by using the CellTiter-Glo Luminescent Cell Viability Assay kit following the manufacturer’s instructions (Promega). Luminescence was measured with SpectraMax i3x (Molecular Devices).

HeLa-MLKL (1–190) cells = test: MLKL dimerization-induced cell death (AP20187); assay type: cell-based, human; details: AP20187 100 nM, 24 h
Description: as §3
Further, we evaluated the selectivity of PK68 against a panel of 369 kinases provided by Reaction Biology (at 1000 nM). […] In addition, we followed on some of the active “hits” from the kinome scan. PK68 was tested against TNIK and TRKA by a reputable CRO company. […] RIPK1 is known to mediate NF-κB activation independently of its kinase activity. […] It has been shown that homodimerization of RIPK3 or MLKL induced by the dimerizer leads to necroptosis bypassing the upstream signals[10],[37]. […] This dimerized RIPK3-induced necroptosis was blocked by RIPK3 inhibitor GSK873 but was not blocked by the RIPK1 inhibitor necrostatin-1. […] (Fig. 4e).
as §4

T1 sequence (Q13546 whole entry): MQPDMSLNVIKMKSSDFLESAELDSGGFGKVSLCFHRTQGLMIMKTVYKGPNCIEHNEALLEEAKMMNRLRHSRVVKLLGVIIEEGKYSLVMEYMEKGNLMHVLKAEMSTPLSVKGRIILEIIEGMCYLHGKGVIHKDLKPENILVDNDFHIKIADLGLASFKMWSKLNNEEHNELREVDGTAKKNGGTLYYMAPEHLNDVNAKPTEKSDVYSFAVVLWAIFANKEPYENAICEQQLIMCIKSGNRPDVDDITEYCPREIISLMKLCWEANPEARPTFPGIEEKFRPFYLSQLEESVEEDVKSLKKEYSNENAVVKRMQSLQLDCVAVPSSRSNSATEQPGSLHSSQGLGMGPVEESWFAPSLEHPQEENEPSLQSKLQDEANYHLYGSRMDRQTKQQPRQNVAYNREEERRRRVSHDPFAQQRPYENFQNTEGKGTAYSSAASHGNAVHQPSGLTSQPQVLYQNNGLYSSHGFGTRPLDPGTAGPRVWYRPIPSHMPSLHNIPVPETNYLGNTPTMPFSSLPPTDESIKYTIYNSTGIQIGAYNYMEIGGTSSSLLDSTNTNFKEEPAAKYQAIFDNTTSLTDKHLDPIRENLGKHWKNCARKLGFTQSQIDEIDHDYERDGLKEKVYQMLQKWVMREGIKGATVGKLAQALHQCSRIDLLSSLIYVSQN

Compound	phosphorylation of RIPK1, RIPK3, and MLKL [1]	generation of RIPK3 puncta [2]	IC50 (human RIPK1)	TNF-induced necroptosis in NIH3T3-RIPK3 cells (NIH3T3-RIPK3 cells)	polymerized MLKL-induced necroptosis (HeLa-MLKL (1–190) cells)
CC(=O)Nc1nc2ccc(-c3cnc(C)c(NC(=O)OC4CCCCC4)c3)cc2s1 [PK68, cyclohexyl (5-(2-acetamidobenzo[d]thiazol-6-yl)-2-methylpyridin-3-yl)carbamate]	completely abolished	prevented generation of RIPK3 puncta	~90 nM and 90 nM	inhibit	neither PK6 nor PK68 had any effect
CC(=O)Nc1nc2ccc(-c3cnc(Cl)c(NC(=O)Cc4ccccc4)c3)cc2s1 [PK6, N-(5-(2-acetamidobenzo[d]thiazol-6-yl)-2-chloropyridin-3-yl)-2-phenylacetamide]	completely abolished	prevented generation of RIPK3 puncta	200 ± 130 nM	inhibit	neither PK6 nor PK68 had any effect

Source: paper PMC6591251, “Discovery of potent necroptosis inhibitors targeting RIPK1 kinase activity for the treatment of inflammatory disorder and cancer metastasis” (Cell Death & Disease, 2019)
